{
  "source": "patent US5723496A",
  "about": "“Method for prevention and treatment of harmful effects of intracellular acidosis” (priority 1995, dated 1998)",
  "key": {"pKa determination": {"test": "pKa determination", "assay_type": "physicochemical", "conditions": "read-out: pKa value (guanidino/amidino moiety)", "procedure": "The mixture was heated to 60° C. and maintained at this temperature until evolution of gas ceased. The solution was cooled on ice until crystals were formed. Following the filtration, the crystals were dissolved in a minimum of distilled water and were recrystallized three times from water. Purity of GES was confirmed by proton NMR spectroscopy at 500 MHz (GE Omega-500). The pKa value of the amino moiety of GES was determined to be 12.48\nGES was prepared as described above. Taurine and methyl isothiopseudourea were purchased from Sigma (St. Louis, Mo.). […] The mixture was heated to 60° C. and maintained at this temperature until evolution of gas ceased. The solution was cooled on ice to crystalize GES, and filtered. The crystals were dissolved in a minimal amount of distilled water and then recrystallized three times from water. The purity of GES was confirmed by proton NMR spectroscopy at 500 MHz (GE Omega-500). The pKa value of the amidino moiety of GES was determined to be 12.48."}, "[1]": {"design": "species or system gerbil", "conditions": "in vivo", "procedure": "Adult male gerbils (ca. 70 g) were divided into three groups of 5 gerbils each. Control group received saline and experimental group received GES. Taurine group served as an additional control. […] The saline group received 0.25 ml of saline injections.\nAfter two weeks, animals were sacrificed by exsanguination under pentobarbital anesthesia. Brains were removed and fixed in liquid nitrogen. The frozen brains were pulverized in a liquid nitrogen cooled mortar and pestle, and mixed with 4 volumes of 0.5N powdered frozen perchloric acid. The powder mixture was centrifuged in liquid nitrogen cooled centrifuge tubes at 16,000 rpm at -4° C. for 30 minutes. The supernatant was removed and titrated to a pH of 9.0-9.5 by the addition of potassium bicarbonate. The solution was stored in an ice bath for 15 minutes and the potassium perchlorate precipitate was removed by centrifugation at 16,000 rpm at -4° C.\nAliquots (0.5 ml) of the extracts obtained above were placed on a dual bed ion exchange column containing 6×0.5 cm Dowex AG1 anion exchange resin (chloride form) layered over 6×0.5 cm Dowex AG50 cation exchange resin (hydrogen form). Water (3 ml) then added to the column. The eluent, guanidinoethyl sulfonate, was free from other naturally occurring guanidino compounds, such as arginine. […] After 18 min., absorbance was read at 545 nm using a Gilford Spectrophotometer to determine brain GES level."}, "[2]": {"tested_on": "post-ischemia hyperactivity", "test": "motor activity (distance traveled) before and after ischemia", "assay_type": "in vivo, gerbil", "procedure": "Ischemia was induced as described above. Motor activity was analyzed using a PC driven automatic behavior analyzer as follows. Animals were placed individually in automated motor activity chambers (Omnitech Digiscan, Columbus, Ohio). A horizontally aligned array of […] infrared beams on each side of the chamber (39×39×39 cm high), located 2.5 cm above the floor and 2.5 cm apart, detected animals movements. […] Animals were studied prior to and 1, 2, 3, 7 day after induction of ischemia. Motor activity was monitored for 6 hours between 11:00 pm and 5:00 am."}, "mouse brain": {"tested_on": "mouse brain", "test": "mouse brain intracellular pH pre- and post-anoxia (Example 7, 31P NMR)", "assay_type": "in vivo, Adult Swiss mice", "conditions": "FIG. 12, sulfate", "procedure": "(§1) Adult Swiss mice (BK-1 male 20 g) purchased from Bantin & Kingman, Fremont, Calif., were used. Each batch consisted of 15 mice. Within each batch, five mice were selected randomly to be in the GES, taurine, or control group. A taurine group was included to serve as additional control.\nA GE Omega CSI-7T (clear bore 120 mm, horizontal, 7T) was used. Mice were anesthetized with pentobarbital, 50 mg/kg, intraperitoneally. Mice were held in a padded holder which was placed in the probe chamber containing a one turn round surface coil (5 mm diameter) tunable to the resonance frequency of proton and ^31 P. To avoid signal contamination, the scalp and temporal muscle were retracted. The animal body temperature was kept at 37° C. using a non-magnetic heating pad. Field homogeneity was maximized by skimming on tissue water proton signals. ^31 P spectra were obtained using a one pulse sequence at 121.67 MHz with a spectral width of 10K and stored into 4K memory blocks (recycle time 1.2 sec). Every 100 transients (2 minutes) were blocked. In order to obtain higher accuracy, preanoxia steady state pH was determined using block average files of three blocks (300 transients, 6 minutes). Anoxia was then introduced by infusion of 100% N2 into the chamber (14 L/min). The first blocks (100 transients, 2 minutes) immediately after N2 introduction were utilized for post anoxia pH measurement. […]"}, "[3]": {"design": "species or system Adult Swiss mice", "conditions": "mouse, in vivo", "procedure": "as §1\nArterial blood gas sample was collected by puncture of the lower portion of the descending aorta under pentobarbital anesthesia. Analysis was performed on a Corning 168 Blood Gas Analyzer."}, "anaerobic glycolysis": {"tested_on": "anaerobic glycolysis", "test": "brain lactate after 2.5 min anoxia", "assay_type": "in vivo, Adult Swiss mice", "procedure": "as §1\nBrain lactate levels were determined for mice exposed to 2.5 minutes of anoxia as follows. Animals were exposed to 2.5 minutes of anoxia under pentobarbital anesthesia. Immediately after the exposure, animals were immersed into a liquid nitrogen. The frozen brains were removed by chiseling and extracted as described above. Lactate concentration was determined using the lactate dehydrogenase reaction."}, "[4]": {"test": "observation of behavior and respiratory pattern", "assay_type": "in vivo, Adult Swiss mice", "conditions": "two weeks i.p.", "text": "as §1"}, "[5]": {"test": "charge state in brain cytosol from pKa", "conditions": "sulfate", "text": "(Soc. Neurosci., 21 Annual Meeting, Abstract, 1078, Oct. 5, 1992). Entry of GES across the blood-brain barrier (BBB) is likely to be in the uncharged form. Following free diffusion into the cytosol, the ratio between uncharged and charged forms will equilibrate according to cytosolic pH and the pKa value of GES.\nFollowing free diffusion into cytosol, the ratio between charged (RH3^+) and uncharged forms will equilibrate according to cytosolic pH and their respective pKa values."}, "[6]": {"conditions": "in vivo, sulfate, cited from earlier work"}, "[7]": {"tested_on": "taurine transport into the brain", "conditions": "sulfate; cited from earlier work"}},
  "note": "“Also recorded” adds a separate entry of the source. Counter-ions that a name gives are not always drawn. Like-named read-outs stand apart in the source and are kept apart here.",
  "data": [
    {"compound": "N=C(N)NCCS(=O)(=O)O", "note": "[GES, guanidinoethane sulfate]", "values": [
      {"measurement": "pKa", "setting": "pKa determination", "result": 12.5},
      {"measurement": "brain GES level relative to saline group", "setting": "[1]", "result": "about 7 times"},
      {"measurement": "travelling distance before ischemia", "setting": "[2]; GES-treated gerbils", "result": "approximately 150 m/hours"},
      {"measurement": "travelling distance of ischemia control vs GES ischemia group", "setting": "[2]; first day after ischemia", "result": "more than 2.5 times"},
      {"measurement": "post-ischemia hyperactivity (in words)", "setting": "[2]; in vivo, sulfate", "result": "did not experienced such hyperactivity periods; also recorded: significantly suppressed; also recorded: able to suppress post-ischemic hyperactivity to close to normal levels"},
      {"measurement": "brain intracellular pH, pre-anoxia (in words)", "setting": "mouse brain; 625 mg/kg i.p., two weeks, 625 mg/kg", "result": "detectable shift in intracellular pH, to a more alkaline level; also recorded: clear alkali shift; also recorded: significantly increased brain intracellular pH (alkaline shift)"},
      {"measurement": "brain intracellular pH, post-anoxia (in words)", "setting": "mouse brain", "result": "alkali shift is maintained following 12 minutes of post anoxia; also recorded: remained higher, retaining the degree of alkaline shift"},
      {"measurement": "arterial blood gas parameters including pH (in words)", "setting": "[3]", "result": "remained essentially unchanged"},
      {"measurement": "arterial pCO2", "setting": "[3]", "result": "41.0 ± 5.49", "unit": "mmHg"},
      {"measurement": "arterial pH", "setting": "[3]", "result": "7.29 ± 0.03"},
      {"measurement": "arterial pO2", "setting": "[3]", "result": "98.0 ± 5.8", "unit": "mmHg"},
      {"measurement": "Lactate", "setting": "anaerobic glycolysis; Table 4, n = 5, post 2.5 min anoxia", "result": "0.50 ± 0.07", "unit": "mM"},
      {"measurement": "lactate levels post 2.5 min anoxia (in words)", "setting": "anaerobic glycolysis; among three groups", "result": "essentially identical among the three groups"},
      {"measurement": "observable adverse effects in behavior or respiratory pattern", "setting": "[4]", "result": "did not show any observable adverse effects"},
      {"measurement": "charge state in brain cytosol (in words)", "setting": "[5]", "result": "virtually all GES in brain cytosol is in the charged form"},
      {"measurement": "blood-brain barrier crossing (in words)", "setting": "[6]; listed as Guanidinoethanesulfonic acid", "result": "ability to cross the blood-brain barrier"},
      {"measurement": "blood-brain barrier crossing (in words)", "setting": "[6]", "result": "crosses the blood brain barrier in the uncharged form"},
      {"measurement": "effect on taurine transport into the brain (in words)", "setting": "[7]", "result": "competitive inhibitor of taurine transport into the brain; also recorded: effectively competes with and inhibits taurine transport into the brain"}
    ]}
  ]
}
